biological target: Benzodiazepine Receptor; test: Test on Binding to Benzodiazepine Receptor (inhibition of specific binding of tritium-labeled diazepam); parameters: species or system male Wistar rats; conditions: rat cerebral cortex; 2 nM tritium-labeled diazepam; 0° C., 60 minutes; Ki=IC50÷(1+L/Kd)
Procedure: This test was carried out modifying partially a method of Moehler & Okada, Science, 198, 849-851 (1977). Receptor preparation was provided from the cerebral cortex of male Wistar rats (11-13 weeks age). Inhibitory action of the test compound on the specific binding of tritium-labeled diazepam to the receptor was evaluated as follows: 2 nM tritium-labeled diazepam and an aqueous solution of the test compound in 5 or 6 different concentrations were incubated with the receptor preparation at 0° C. for 60 minutes. The 50% inhibitory concentration (IC50) was measured by the concentration-response curve. In addition, the inhibitory constant (Ki) of the test compound was calculated by dissociation constant (Kd) and concentration (L) of tritium-labelled diazepam.

SMILES | Ki [nM]
c1ccc(-c2nc3cnc4c(c3[nH]2)CCCC4)cc1 [Ia-1, 2-Phenyl-6,7,8,9-tetrahydro-1H-imidazo[4,5-c]quinoline] | 13.7
c1csc(-c2nc3cnc4c(c3[nH]2)CCCC4)c1 [Ia-3] | 1.9
c1coc(-c2nc3cnc4c(c3[nH]2)CCCC4)c1 [Ia-5] | 3.46
Cc1cc(-c2nc3cnc4c(c3[nH]2)CCCC4)on1 [Ia-6] | 2.19
c1cc(-c2nc3cnc4c(c3[nH]2)CCCC4)no1 [Ia-7, 2-(3-Isoxazolyl) -6,7,8,9-tetrahydro-1H-imidazo[4,5-c]quinoline] | 1.3
Cc1cc(-c2nc3cnc4c(c3[nH]2)COCC4)on1 [Ib-5] | 6.97
c1cc(-c2nc3cnc4c(c3[nH]2)COCC4)no1 [Ib-7, 2-(3-Isoxazolyl)-1,6,7,9-tetrahydroimidazo[4,5-d]pyrano[4,3-b]pyridine] | 2.09
c1csc(-c2nc3cnc4c(c3[nH]2)CCCCC4)c1 [Ic-3] | 6.06
c1cc(-c2nc3cnc4c(c3[nH]2)CCCCC4)no1 [Ic-6] | 2.29
Cc1cc(-c2nc3cnc4c(c3[nH]2)CCCCC4)on1 [Ic-7] | 9.47
c1cc(-c2nc3cnc4c(c3[nH]2)CCC4)no1 [Id-1] | 2.55
Cc1cc(-c2nc3cnc4c(c3[nH]2)CCC4)on1 [Id-2] | 8.94
CC1(C)Cc2ncc3nc(-c4ccon4)[nH]c3c2C1 [Ie-1, 2-(3-Isoxazolyl]-7,7-dimethyl-1H-imidazo[4,5-d]-cyclopenta[b]pyridine] | 7.2
c1cc(-c2nc3cnc4c(c3[nH]2)CSCC4)no1 [If-1, 2-(3-Isoxazolyl)-1,6,7,9-tetrahydroimidazo[4,5-d]-thiopyrano[4,3-b]pyridine] | 0.44
CCOC(=O)N1CCc2ncc3nc(-c4ccon4)[nH]c3c2C1 [Ig-1, 2-(3-isoxazolyl)-8-ethoxycarbonyl-6,7,8,9-tetrahydro-1H-imidazo[4,5-c]naphthylidine] | 2.8

system: Pentylenetetrazole-Induced Convulsion; test: Potentiation of Pentylenetetrazole-Induced Convulsion (inverse agonist activity); assay type: in vivo; conditions: Mus musculus, iv; male mice; test compound i.v.; pentylenetetrazole 90 mg/kg s.c.; 2-hour observation; probit method; read-out: ED50 (dose required to produce tonic convulsion and death in 50% of the animals)
Procedure: (§1) Inverse agonist activity was evaluated in this Experiment. Pentylenetetrazole was subscutaneously administered male mice (a group of 8-16 male mice was employed in each test) at a dose of 90 mg/kg immediately after intravenous injection of the test compound. The dose (ED50) required to produce tonic convulsion and death in 50% of the animals during subsequent 2-hour observation period was calculated by the probit method.

SMILES | ED50 [mg/kg]
c1cc(-c2nc3cnc4c(c3[nH]2)COCC4)no1 [Ib-7, 2-(3-Isoxazolyl)-1,6,7,9-tetrahydroimidazo[4,5-d]pyrano[4,3-b]pyridine] | 1.27
c1cc(-c2nc3cnc4c(c3[nH]2)CCC4)no1 [Id-1] | 0.4
CC1(C)Cc2ncc3nc(-c4ccon4)[nH]c3c2C1 [Ie-1, 2-(3-Isoxazolyl]-7,7-dimethyl-1H-imidazo[4,5-d]-cyclopenta[b]pyridine] | 0.25
c1cc(-c2nc3cnc4c(c3[nH]2)CSCC4)no1 [If-1, 2-(3-Isoxazolyl)-1,6,7,9-tetrahydroimidazo[4,5-d]-thiopyrano[4,3-b]pyridine] | 0.96

system: human memory; test: not given; conditions: M. Sarter et al., TINS 11, 13 (1988); cited from earlier work

SMILES | effect on human memory
CN1C(=O)CN=C(c2ccccc2)c2cc(Cl)ccc21 [diazepam] | inhibits human memory

system: Pentylenetetrazole-Induced Convulsion; test: Antagonism of Pentylenetetrazole-Induced Convulsion (agonistic activity); assay type: in vivo; conditions: Mus musculus, iv; male mice; test compound i.v.; pentylenetetrazole 125 mg/kg s.c.; 2-hour observation; probit method; read-out: ED50 (dose required to prevent tonic convulsion and death in 50% of the animals)
Procedure: as §1, with “Agonistic” for “Inverse agonist”, “subcutaneously” for “subscutaneously”, “125” for “90”, “prevent” for “produce”

SMILES | ED50 [mg/kg]
c1ccc(-c2nc3cnc4c(c3[nH]2)CCCC4)cc1 [Ia-1, 2-Phenyl-6,7,8,9-tetrahydro-1H-imidazo[4,5-c]quinoline] | 7.85
Cc1cc(-c2nc3cnc4c(c3[nH]2)CCCC4)on1 [Ia-6] | 0.17
Cc1cc(-c2nc3cnc4c(c3[nH]2)COCC4)on1 [Ib-5] | 0.8
Cc1cc(-c2nc3cnc4c(c3[nH]2)CCCCC4)on1 [Ic-7] | 1.05
Cc1cc(-c2nc3cnc4c(c3[nH]2)CCC4)on1 [Id-2] | 0.74
CCOC(=O)N1CCc2ncc3nc(-c4ccon4)[nH]c3c2C1 [Ig-1, 2-(3-isoxazolyl)-8-ethoxycarbonyl-6,7,8,9-tetrahydro-1H-imidazo[4,5-c]naphthylidine] | 3.69

— patent US5378848A, “Condensed imidazopyridine derivatives” (Shionogi & Co., Ltd., priority 1992, dated 1995)
